Laboratory results taken from ChEMBL document CHEMBL5665443, “Enzyme Inhibitor Single Concentration assay results for EUbOPEN Chemogenomics Library” (2024).
Where “and” joins values, the source holds several entries; their conditions need not be identical. Equal values may be shown once.

Experiments:
Conditions in all cases: Compound Concentration 10.0 uM, Hit No
[1] = molecular target: Endonuclease 8-like 1 (Homo sapiens) (UniProt Q96FI4);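 further: fluorescence at 594 nm from quenched duplex DNA oligonucleotides released by NEIL1 cleavage and strand separation, reported as reduction of this enzyme activity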
Description: Inhibition of NEIL1 by quantifying inhibition of NEIL1-mediated cleavage and dissociation of quenched duplex DNA oligonucleotides, measured as fluorescence at 594 nm.

[2] = molecular target: T1, Endonuclease 8-like 2 (Homo sapiens) (UniProt Q969S2);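 further: fluorescence at 594 nm reports NEIL2 cutting and release of a quenched double-stranded DNA oligo substrate, reduced signal read as inhibition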
T1 sequence (whole entry): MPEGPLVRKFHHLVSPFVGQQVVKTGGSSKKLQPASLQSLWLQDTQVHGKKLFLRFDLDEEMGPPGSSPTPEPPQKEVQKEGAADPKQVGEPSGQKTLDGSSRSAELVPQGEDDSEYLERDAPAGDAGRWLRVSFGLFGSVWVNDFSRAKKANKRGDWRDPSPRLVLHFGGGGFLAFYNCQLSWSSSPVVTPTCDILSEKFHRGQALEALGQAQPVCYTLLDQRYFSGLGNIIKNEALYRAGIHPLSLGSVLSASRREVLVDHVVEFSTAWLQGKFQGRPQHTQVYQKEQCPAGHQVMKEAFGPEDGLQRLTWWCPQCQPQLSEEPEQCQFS
Description: Inhibition of NEIL2 by quantifying inhibition of NEIL2-mediated cleavage and dissociation of quenched duplex DNA oligonucleotides, measured as fluorescence at 594 nm.

[3] = molecular target: T2, Endonuclease III-like protein 1 (Homo sapiens) (UniProt P78549);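 further: enzyme assay tracking NTHL1 cutting and release of a quenched double-stranded DNA oligo substrate, read as fluorescence at 594 nm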
T2 sequence (whole entry): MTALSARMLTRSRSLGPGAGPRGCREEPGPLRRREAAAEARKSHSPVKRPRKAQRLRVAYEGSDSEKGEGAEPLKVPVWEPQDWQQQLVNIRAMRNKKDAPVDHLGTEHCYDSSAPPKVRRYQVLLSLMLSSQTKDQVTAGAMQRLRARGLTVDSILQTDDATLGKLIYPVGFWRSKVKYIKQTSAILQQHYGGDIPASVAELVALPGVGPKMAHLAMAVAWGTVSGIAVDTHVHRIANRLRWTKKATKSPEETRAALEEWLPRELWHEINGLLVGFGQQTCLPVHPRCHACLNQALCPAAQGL
Description: Inhibition of NTHL1 by quantifying inhibition of NTHL1-mediated cleavage and dissociation of quenched duplex DNA oligonucleotides, measured as fluorescence at 594 nm.

[4] = molecular target: N-glycosylase/DNA lyase (Homo sapiens) (UniProt O15527);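 further: OGG1 cleavage of a quenched duplex DNA oligonucleotide, coupled to APE1 for strand incision, read as fluorescence at 594 nm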
Description: Inhibition of OGG1 by quantifying inhibition of OGG1-mediated cleavage and dissociation of quenched duplex DNA oligonucleotides, measured as fluorescence at 594 nm. To generate a functional strand incision and increase turn-over this assay is coupled to APE1.

[5] = molecular target: T3, Single-strand selective monofunctional uracil DNA glycosylase (Homo sapiens) (UniProt Q53HV7);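 further: enzymatic SMUG1 assay coupled with APE1, reading fluorescence at 594 nm released when a quenched double-stranded DNA oligonucleotide substrate is cleaved and separated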
T3 sequence (whole entry): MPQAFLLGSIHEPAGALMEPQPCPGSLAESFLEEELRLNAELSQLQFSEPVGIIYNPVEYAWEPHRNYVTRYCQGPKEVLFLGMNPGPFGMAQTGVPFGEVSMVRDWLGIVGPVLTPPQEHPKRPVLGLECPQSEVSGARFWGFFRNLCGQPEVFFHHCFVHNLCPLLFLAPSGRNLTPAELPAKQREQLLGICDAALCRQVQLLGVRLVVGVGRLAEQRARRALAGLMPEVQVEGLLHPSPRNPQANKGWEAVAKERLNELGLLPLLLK
Description: Inhibition of SMUG1 by quantifying inhibition of SMUG1-mediated cleavage and dissociation of quenched duplex DNA oligonucleotides, measured as fluorescence at 594 nm. To generate a functional strand incision and increase turn-over this assay is coupled to APE1.

[6] = molecular target: G/T mismatch-specific thymine DNA glycosylase (Homo sapiens) (UniProt Q13569);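 further: human TDG cleavage of quenched duplex DNA oligonucleotides coupled to APE1, strand release read as fluorescence at 594 nm, inhibition of TDG activity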
Description: Inhibition of TDG by quantifying inhibition of TDG-mediated cleavage and dissociation of quenched duplex DNA oligonucleotides, measured as fluorescence at 594 nm. To generate a functional strand incision and increase turn-over this assay is coupled to APE1.

[7] = molecular target: Uracil-DNA glycosylase (Homo sapiens) (UniProt P13051);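 further: UNG excision on a quenched double-stranded DNA oligo probe, with APE1 added for strand incision and turnover, read as fluorescence at 594 nm as strands separate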
Description: Inhibition of UNG by quantifying inhibition of UNG-mediated cleavage and dissociation of quenched duplex DNA oligonucleotides, measured as fluorescence at 594 nm. To generate a functional strand incision and increase turn-over this assay is coupled to APE1.

[8] = molecular target: Methyl-CpG-binding domain protein 4 (Homo sapiens) (UniProt O95243);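 further: MBD4 activity read as fluorescence at 594 nm from cleavage and release of a quenched duplex DNA oligonucleotide, with APE1 coupled to incise the strand and raise turnover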
Methyl-CpG-binding domain protein 4 (Homo sapiens), sequence (O95243 whole entry, the tested form may be a part): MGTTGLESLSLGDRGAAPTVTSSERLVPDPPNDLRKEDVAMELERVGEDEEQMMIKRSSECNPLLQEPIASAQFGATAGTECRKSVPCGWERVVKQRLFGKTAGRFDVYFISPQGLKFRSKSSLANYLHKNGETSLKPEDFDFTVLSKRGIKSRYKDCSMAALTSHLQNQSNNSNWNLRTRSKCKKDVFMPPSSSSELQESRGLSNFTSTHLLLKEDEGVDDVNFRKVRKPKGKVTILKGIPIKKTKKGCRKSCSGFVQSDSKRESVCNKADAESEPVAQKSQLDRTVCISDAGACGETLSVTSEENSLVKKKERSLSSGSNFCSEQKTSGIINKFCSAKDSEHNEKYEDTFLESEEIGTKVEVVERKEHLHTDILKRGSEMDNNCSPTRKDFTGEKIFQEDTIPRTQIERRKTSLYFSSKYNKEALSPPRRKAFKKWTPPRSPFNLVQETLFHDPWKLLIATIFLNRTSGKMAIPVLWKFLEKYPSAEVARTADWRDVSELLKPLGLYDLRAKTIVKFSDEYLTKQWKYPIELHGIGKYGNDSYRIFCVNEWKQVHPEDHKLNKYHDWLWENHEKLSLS
Description: Inhibition of MBD4 by quantifying inhibition of MBD4-mediated cleavage and dissociation of quenched duplex DNA oligonucleotides, measured as fluorescence at 594 nm. To generate a functional strand incision and increase turn-over this assay is coupled to APE1.

N-glycosylase/DNA lyase (Homo sapiens), sequence (O15527 whole entry): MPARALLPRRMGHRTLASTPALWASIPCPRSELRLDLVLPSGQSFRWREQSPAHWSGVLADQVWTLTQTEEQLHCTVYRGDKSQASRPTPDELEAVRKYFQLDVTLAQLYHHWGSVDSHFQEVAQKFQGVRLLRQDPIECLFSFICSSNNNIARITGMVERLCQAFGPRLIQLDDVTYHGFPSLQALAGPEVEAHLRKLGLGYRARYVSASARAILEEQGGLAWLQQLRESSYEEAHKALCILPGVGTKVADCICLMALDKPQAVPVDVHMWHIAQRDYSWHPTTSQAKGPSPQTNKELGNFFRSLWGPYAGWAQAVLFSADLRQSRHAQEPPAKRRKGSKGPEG
Uracil-DNA glycosylase (Homo sapiens), sequence (P13051 whole entry, the tested form may be a part): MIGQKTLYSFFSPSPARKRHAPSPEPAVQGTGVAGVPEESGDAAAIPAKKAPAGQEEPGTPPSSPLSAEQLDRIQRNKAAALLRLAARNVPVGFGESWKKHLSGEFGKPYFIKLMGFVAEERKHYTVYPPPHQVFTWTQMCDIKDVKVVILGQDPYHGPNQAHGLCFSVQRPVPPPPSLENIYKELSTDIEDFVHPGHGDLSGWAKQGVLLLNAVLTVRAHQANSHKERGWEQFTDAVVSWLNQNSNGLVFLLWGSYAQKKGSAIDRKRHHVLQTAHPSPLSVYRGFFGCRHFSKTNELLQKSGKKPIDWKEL
Endonuclease 8-like 1 (Homo sapiens), sequence (Q96FI4 whole entry): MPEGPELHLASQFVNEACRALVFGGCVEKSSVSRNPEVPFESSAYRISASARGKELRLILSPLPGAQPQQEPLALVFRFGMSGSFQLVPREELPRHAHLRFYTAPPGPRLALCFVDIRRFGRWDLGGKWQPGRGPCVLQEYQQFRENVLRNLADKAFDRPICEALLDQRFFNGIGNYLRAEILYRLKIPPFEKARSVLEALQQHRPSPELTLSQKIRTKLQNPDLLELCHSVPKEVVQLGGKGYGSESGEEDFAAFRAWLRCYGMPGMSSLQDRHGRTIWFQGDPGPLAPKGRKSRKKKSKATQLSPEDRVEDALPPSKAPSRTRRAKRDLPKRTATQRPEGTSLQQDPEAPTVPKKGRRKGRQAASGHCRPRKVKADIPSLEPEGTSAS
G/T mismatch-specific thymine DNA glycosylase (Homo sapiens), sequence (Q13569 whole entry): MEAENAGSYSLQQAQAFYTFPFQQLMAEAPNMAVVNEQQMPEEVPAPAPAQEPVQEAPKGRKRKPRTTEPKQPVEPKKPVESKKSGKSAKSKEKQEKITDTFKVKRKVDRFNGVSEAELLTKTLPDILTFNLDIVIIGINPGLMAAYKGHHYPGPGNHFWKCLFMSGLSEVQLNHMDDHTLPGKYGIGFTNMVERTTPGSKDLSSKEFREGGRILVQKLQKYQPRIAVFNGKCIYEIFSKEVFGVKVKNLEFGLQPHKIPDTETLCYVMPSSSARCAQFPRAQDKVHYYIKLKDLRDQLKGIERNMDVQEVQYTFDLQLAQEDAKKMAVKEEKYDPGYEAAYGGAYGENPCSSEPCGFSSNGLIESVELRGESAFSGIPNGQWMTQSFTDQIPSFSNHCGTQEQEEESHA

Row | SMILES | inhibition [1] | inhibition [2] | inhibition [3] [%] | inhibition [4] | inhibition [5] [%] | inhibition [6] [%] | inhibition [7] | inhibition [8] [%]
1 | OCCN1CCN(CCCN2c3ccccc3Sc3ccc(Cl)cc32)CC1 | 17.1% | 12.5% | 3.39 | -8.6% | -0.808 | 3.7 | -5.33% | –
2 | COc1cc(Nc2nccc(-c3cnn4nc(OC)ccc34)n2)cc(C(F)(F)F)c1 | 11.1% | -0.842% | 0.785 | 8.51% | 1.75 | 8.41 | -0.0969% | –
3 | Cc1cc2c(-c3ccco3)cnc(N[C@@H]3CCN(C)C[C@H]3C(=O)NC3CCCCC3)c2[nH]c1=O | – | – | -9.18 | – | – | 33.3 | -3.36% | 58.5
4 | CN1C[C@H](C(=O)N[C@]2(C)O[C@@]3(O)[C@@H]4CCCN4C(=O)[C@H](Cc4ccccc4)N3C2=O)C[C@@H]2c3cccc4[nH]cc(c34)C[C@H]21 | 9.88% | 7% | 15.8 | -8.52% | 0.306 | 7.37 | -3.4% | –
5 | OC1(c2ccc(Cl)cc2)CCN(Cc2c[nH]c3ccccc23)CC1 | -5.1% | 5.51% | 7.05 | -9.04% | -1.92 | 17.2 | -8.06% | –
6 | N#Cc1ccc(Cn2ccc(NC(=O)Cc3ccc(C4(C(F)(F)F)CC4)cc3)n2)nc1 | 4.9% | -3.66% | 17.1 | -2.87% | -0.24 | -8.44 | -0.478% | –
7 | Cc1c(P(=S)(c2ccccc2)c2ccccc2)n2ccccc2[n+]1C/C=C/c1ccccc1 | 11.1% | -6.97% | 23.9 | 1.08% | -6.48 | 35.9 | -7.24% | –
8 | N#CC1(c2ccccn2)CCN(Cc2cc(C(=O)O)c(=O)n3ccccc23)CC1 | -0.139% | 0.531% | -9.18 | -3.75% | – | 45.8 | 1.66% | 93
9 | COc1ccc(NS(=O)(=O)c2sc3ccc(Cl)cc3c2C)cc1N1CCNCC1 | 16% | 1.51% | -3.94 | -6.55% | 12 | 18 | -3.02% | –
10 | CN(c1ncccc1CNc1ccnc(-c2nc3c(F)c(Cl)ccc3[nH]2)n1)S(C)(=O)=O | 1.59% | -8.38% | 9.15 | -6.69% | 9.82 | 35.5 | -1.37% | –
11 | C[C@H]1[C@H]2CC[C@H]3[C@@H]4CC=C5C[C@@H](N(C)C)CC[C@]5(C)[C@H]4CC[C@]23CN1C | -0.649% | -7.72% | 7.05 | -2.15% | 4.86 | 5.99 | -8.6% | –
12 | C[C@@H](O[C@H]1OCCN(Cc2n[nH]c(=O)[nH]2)[C@H]1c1ccc(F)cc1)c1cc(C(F)(F)F)cc(C(F)(F)F)c1 | 5.88% | 8.5% | -1.01 | -7.13% | -5.17 | 0.716 | -3.75% | –
13 | S=C(NCCCc1c[nH]cn1)NCCCN(Cc1ccc(Cl)c(Cl)c1)c1ccc(Br)cn1 | -8.51% and -1.24% | -7.72% and 0.265% | 7.05 | -8.08% and 0.522% | 0.354 | -1.74 | -7.82% and -8.52% | –
14 | COc1ncc(F)cc1CNc1ccc(Cc2c[nH]c3ncc(C)cc23)c(F)n1 | 1.33% | 2.39% | -7.58 | 5.69% | 18.6 | 37.9 | 6.92% | –
15 | CC(=O)c1ccc2c(c1)[C@@H]1C=CC[C@@H]1[C@H](c1cc3c(cc1Br)OCO3)N2 | 1.72% | 9.25% | 11.4 | 2.12% | 5.25 | 13.5 | -3.58% | –
16 | C[C@H](Cc1cc2c(c(C(N)=O)c1)N(CCCO)CC2)NCCOc1ccccc1OCC(F)(F)F | -4.21% | -1.48% | -1.01 | -6.28% | 1.13 | 2.34 | -9.87% | –
17 | O=C(Nc1ccc(Cl)cc1)Nc1cccc(-c2cccc(N3CCCC3)n2)c1 | 8.84% | -4.23% | -0.275 | -1.14% | -0.712 | – | -9.34% | –
18 | CC1=C2C[C@H]3[C@@H](CC=C4C[C@@H](O)CC[C@@]43C)[C@@H]2CC[C@]12O[C@@H]1C[C@H](C)CN[C@H]1[C@H]2C | -3.61% | 1.26% | -6.14 | -3.73% | 2.68 | 5.99 | -9.72% | –
19 | Cc1onc(O)c1CC(N)C(=O)O (stereo not drawn) | -4.58% | -2.64% | -3.56 | -2.69% | -3.23 | 5.29 | -3.91% | –
20 | N=C(N)NCCC[C@@H](NC(=O)C(c1ccccc1)c1ccccc1)C(=O)NCc1ccc(CNC(N)=O)cc1 | 11.1% | -2.13% | 11.3 | -4.9% | 0.0989 | – | -1.81% | –
21 | CC(C)(C)c1cc(C(C)(C)C)c(NC(=O)c2c[nH]c3ccccc3c2=O)cc1O | 1.34% | 5.25% | 14.6 | -6.32% | 6.2 | – | 1.6% | –
22 | CN(C)C(=O)C(CCN1CCC(O)(c2ccc(Cl)cc2)CC1)(c1ccccc1)c1ccccc1 | 7.8% | 7.75% | 28.3 | -5.28% | -1.44 | 5.3 | -5.39% | –
23 | CCNC1(C(N)=O)CCN(c2ncnc3c2nc(-c2ccccc2Cl)n3-c2ccc(Cl)cc2)CC1 | 1.13% | 3.76% | 17.3 | -3.75% | 12.2 | 11.7 | -6.19% | –
24 | NCCc1cn(S(=O)(=O)c2c(Cl)nc3sccn23)c2ccccc12 | 6.53% | -1.62% | -1.91 | 16.8% | 3.77 | – | -2.77% | –
25 | COc1cc(OC)c(NC(=O)c2ccc(Cc3cc4c(cc3C)C(C)(C)CCC4(C)C)o2)c(OC)c1 | 7.51% | 14.7% | 19.5 | 2.66% | -2.6 | 1.84 | -5.24% | –
26 | O=C1O[C@]2(CC[C@H](C(=O)Nc3ccn(-c4ccccc4F)n3)CC2)c2cnccc21 | -8.51% | -7.47% | -1.74 | -9.12% | 3.16 | 1.4 | -8.76% | –
27 | CN(C)S(=O)(=O)c1ccc(NC(=S)N2CCC(C(O)(c3ccccc3)c3ccccc3)CC2)cc1 | -0.797% | 0.265% | 16.6 | -3.65% | 3.26 | -1.66 | -7.47% | –
28 | CCC1(C2=NCCN2)Cc2ccccc2O1 (stereo not drawn) | -9.99% | -5.22% | 1.19 | -0.183% | – | 2.85 | -0.713% | 3.23
29 | O=c1c2cccn2c2ccccc2n1CCCN1CCC(c2ccc(Cl)cc2)CC1 | 10.5% | 7.75% | 6.32 | -2.48% | 5.73 | 2.78 | -8.09% | –
30 | CN(C(=O)Cc1ccc(Cl)c(Cl)c1)C(CN1CCCC1)c1cccc(OCC(=O)O)c1 (stereo not drawn) | -0.5% | -9.22% | 13.7 | -6.71% | -2.65 | -1.52 | -7.78% | –
